Data as given in PubChem BioAssay (NCI).
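Assay format: 96-well plates, 48-hour exposure. Abbreviation: GI50, concentration required for 50% inhibition of growth. Definition used: TGI = concentration required for complete inhibition of growth.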

How the values were obtained:
Experiment in all cases: DTP human tumour cell line panel, 48 h
MOLT-4 leukemia = test system: MOLT-4 leukemia
HCT-116 colon = test system: HCT-116 colon
DU-145 prostate = test system: DU-145 prostate
MCF7 breast = test system: MCF7 breast
U251 CNS = test system: U251 CNS
NCI-H522 lung = test system: NCI-H522 lung
NCI-H23 lung = test system: NCI-H23 lung
OVCAR-5 ovarian = test system: OVCAR-5 ovarian
MDA-MB-231 breast = test system: MDA-MB-231 breast
NCI-H460 lung = test system: NCI-H460 lung

In the case of `COC(=O)[C@@H]1C=C[C@@H](C#N)n2c(=O)n(-c3ccccc3)c(=O)n21`, the TGI (MOLT-4 leukemia) is reported as 67.1 µM, the TGI (HCT-116 colon) is reported as > 100 µM and the TGI (DU-145 prostate) is reported as > 100 µM. For the same molecule, the TGI (MCF7 breast) was > 100 µM, the TGI (U251 CNS) was > 100 µM and the TGI (NCI-H522 lung) was 32.4 µM. For the same molecule, the TGI (NCI-H23 lung) was > 100 µM, the TGI (OVCAR-5 ovarian) was > 100 µM and the TGI (MDA-MB-231 breast) was 93.6 µM.
With `CSc1c(C(=O)Nc2ccc(C)cc2)c(N)nn1-c1ccccc1` the TGI (MOLT-4 leukemia) was > 100 µM, the TGI (HCT-116 colon) was > 100 µM and the TGI (DU-145 prostate) was > 100 µM. For the same molecule, the TGI (MCF7 breast) was > 100 µM, the TGI (U251 CNS) was > 100 µM and the TGI (NCI-H522 lung) was > 100 µM. The TGI (NCI-H23 lung) was > 100 µM, the TGI (NCI-H460 lung) was 42.9 µM and the TGI (OVCAR-5 ovarian) was > 100 µM. The TGI (MDA-MB-231 breast) was > 100 µM.
With `Clc1ccccc1/C=C/c1nsc(/C=C/c2ccccc2Cl)n1` the TGI (MOLT-4 leukemia) was > 100 µM, the TGI (HCT-116 colon) was > 100 µM and the TGI (DU-145 prostate) was > 100 µM. For the same molecule, the TGI (MCF7 breast) was > 100 µM, the TGI (U251 CNS) was > 100 µM and the TGI (NCI-H522 lung) was > 100 µM. For the same molecule, the TGI (NCI-H460 lung) was 46.4 µM, the TGI (OVCAR-5 ovarian) was > 100 µM and the TGI (MDA-MB-231 breast) was > 100 µM.
For `N#Cc1ncn(-c2ccccc2)c1N`, the TGI (MOLT-4 leukemia) was > 100 µM, the TGI (HCT-116 colon) was > 100 µM and the TGI (DU-145 prostate) was > 100 µM. For the same molecule, the TGI (MCF7 breast) was > 100 µM, the TGI (U251 CNS) was > 100 µM and the TGI (NCI-H522 lung) was > 100 µM. The TGI (NCI-H23 lung) was > 100 µM, the TGI (NCI-H460 lung) was > 100 µM and the TGI (OVCAR-5 ovarian) was > 100 µM. The TGI (MDA-MB-231 breast) was > 100 µM.
Molecule `OC1c2ccccc2[C@@H]2[C@H]1[C@@H](c1ccccc1)C1(Cc3ccccc3C1O)[C@H]2c1ccccc1` (stereo partly specified) has a TGI (MOLT-4 leukemia) of 8.57 µM, a TGI (HCT-116 colon) of 14.5 µM and a TGI (DU-145 prostate) of 22 µM. It also gave a TGI (MCF7 breast) of 4.7 µM, a TGI (U251 CNS) of 14.1 µM and a TGI (NCI-H522 lung) of 14.2 µM. It also gave a TGI (NCI-H23 lung) of 18.4 µM, a TGI (NCI-H460 lung) of 10.2 µM and a TGI (OVCAR-5 ovarian) of 23.2 µM. For the same molecule, the TGI (MDA-MB-231 breast) was 20.3 µM.
`CC1=C2C(=O)O[C@@H](c3ccoc3)[C@]2(C)CCC1=O` was tested, and the TGI (MOLT-4 leukemia) was > 100 µM, the TGI (HCT-116 colon) was > 100 µM and the TGI (DU-145 prostate) was > 100 µM. For the same molecule, the TGI (MCF7 breast) was > 100 µM, the TGI (U251 CNS) was > 100 µM and the TGI (NCI-H23 lung) was > 100 µM. The TGI (NCI-H460 lung) was > 100 µM, the TGI (OVCAR-5 ovarian) was > 100 µM and the TGI (MDA-MB-231 breast) was > 100 µM.
For `Cc1cc2nc(N3C(=O)/C(=C/c4cccc([N+](=O)[O-])c4)N=C3c3ccccc3)sc2cc1C`, the TGI (MOLT-4 leukemia) was 32.4 µM, the TGI (HCT-116 colon) was > 100 µM and the TGI (DU-145 prostate) was > 100 µM. For the same molecule, the TGI (MCF7 breast) was 43.9 µM, the TGI (U251 CNS) was 58 µM and the TGI (NCI-H460 lung) was > 100 µM. For the same molecule, the TGI (OVCAR-5 ovarian) was > 100 µM and the TGI (MDA-MB-231 breast) was > 100 µM.
`CCOc1ccc2ccccc2c1NC1=NCCO1` was tested, and the TGI (MOLT-4 leukemia) was 84 µM, the TGI (HCT-116 colon) was > 100 µM and the TGI (DU-145 prostate) was > 100 µM. For the same molecule, the TGI (MCF7 breast) was > 100 µM, the TGI (U251 CNS) was > 100 µM and the TGI (NCI-H23 lung) was > 100 µM. The TGI (NCI-H460 lung) was 57.7 µM, the TGI (OVCAR-5 ovarian) was > 100 µM and the TGI (MDA-MB-231 breast) was > 100 µM.
`O/N=c1/ccn(O)c2ccccc12` was tested, and the TGI (HCT-116 colon) was 11.3 µM, the TGI (DU-145 prostate) was 7.76 µM and the TGI (MCF7 breast) was 7.49 µM. For the same molecule, the TGI (U251 CNS) was 6.65 µM, the TGI (NCI-H522 lung) was 3.23 µM and the TGI (NCI-H23 lung) was 8.96 µM. It also gave a TGI (NCI-H460 lung) of 3.67 µM, a TGI (OVCAR-5 ovarian) of 14.7 µM and a TGI (MDA-MB-231 breast) of 5.4 µM.
For `O=c1[nH]c2cc(C(F)(F)F)ccc2nc1Cc1ccccc1`, the TGI (MOLT-4 leukemia) was > 100 µM, the TGI (HCT-116 colon) was > 100 µM and the TGI (DU-145 prostate) was > 100 µM. For the same molecule, the TGI (MCF7 breast) was > 100 µM, the TGI (U251 CNS) was > 100 µM and the TGI (NCI-H23 lung) was 68.8 µM. For the same molecule, the TGI (NCI-H460 lung) was > 100 µM and the TGI (MDA-MB-231 breast) was 83.6 µM.
For `O=C(O)CCC(NC(=O)c1ccc(Nc2nc3ccccc3nc2C(=O)O)cc1)C(=O)O` (stereo unspecified), the TGI (MOLT-4 leukemia) was > 100 µM, the TGI (HCT-116 colon) was > 100 µM and the TGI (DU-145 prostate) was > 100 µM. For the same molecule, the TGI (MCF7 breast) was > 100 µM, the TGI (U251 CNS) was > 100 µM and the TGI (NCI-H522 lung) was > 100 µM. For the same molecule, the TGI (NCI-H23 lung) was > 100 µM, the TGI (OVCAR-5 ovarian) was > 100 µM and the TGI (MDA-MB-231 breast) was > 100 µM.
`COCCOCN(C(=O)C1=CCC2(CC1)OCCO2)c1ccccc1I` was tested, and the TGI (MOLT-4 leukemia) was > 50 µM, the TGI (HCT-116 colon) was > 50 µM and the TGI (DU-145 prostate) was > 50 µM. The TGI (MCF7 breast) was > 50 µM, the TGI (U251 CNS) was > 50 µM and the TGI (NCI-H23 lung) was > 50 µM. For the same molecule, the TGI (NCI-H460 lung) was > 50 µM, the TGI (OVCAR-5 ovarian) was > 50 µM and the TGI (MDA-MB-231 breast) was > 50 µM.
In the case of `Cc1nc(-c2ccccc2)c(C)n2c1nc1ccccc12`, the TGI (MOLT-4 leukemia) is reported as > 100 µM, the TGI (HCT-116 colon) is reported as > 100 µM and the TGI (DU-145 prostate) is reported as > 100 µM. The TGI (MCF7 breast) was 86.1 µM, the TGI (U251 CNS) was > 100 µM and the TGI (NCI-H23 lung) was 40.9 µM. For the same molecule, the TGI (NCI-H460 lung) was 63.3 µM, the TGI (OVCAR-5 ovarian) was > 100 µM and the TGI (MDA-MB-231 breast) was > 100 µM.
`CC(CC(=O)CO[C@H]1[C@H](O)[C@@H](O)[C@@H](O)[C@@H]2NC(=O)c3c(cc4c(c3O)OCO4)[C@H]21)OC1OC(CO)C(O)C(O)C1O` (stereo partly specified) gave a TGI (MOLT-4 leukemia) of 3.54 µM, a TGI (HCT-116 colon) of 1.67 µM and a TGI (DU-145 prostate) of 0.664 µM. For the same molecule, the TGI (MCF7 breast) was 1.47 µM, the TGI (NCI-H522 lung) was 1.23 µM and the TGI (NCI-H23 lung) was 3.07 µM. For the same molecule, the TGI (OVCAR-5 ovarian) was 5.7 µM and the TGI (MDA-MB-231 breast) was 1.89 µM.
`O=C(c1ccccc1)c1nn(-c2ccc(Cl)cc2)c2nc3nc(-c4ccccc4)cc(=O)n3nc12` was tested, and the GI50 (MOLT-4 leukemia) was 37.9 µM, the TGI (MOLT-4 leukemia) was > 100 µM and the GI50 (HCT-116 colon) was 19.9 µM. For the same molecule, the TGI (HCT-116 colon) was 52.2 µM, the GI50 (DU-145 prostate) was 30.7 µM and the TGI (DU-145 prostate) was > 100 µM. For the same molecule, the GI50 (MCF7 breast) was 40.9 µM, the TGI (MCF7 breast) was > 100 µM and the GI50 (U251 CNS) was 31.5 µM. The TGI (U251 CNS) was > 100 µM, the GI50 (NCI-H522 lung) was 31.2 µM and the TGI (NCI-H522 lung) was > 100 µM. The GI50 (NCI-H23 lung) was 65.6 µM, the TGI (NCI-H23 lung) was > 100 µM and the GI50 (NCI-H460 lung) was 39.1 µM. For the same molecule, the TGI (NCI-H460 lung) was > 100 µM, the GI50 (MDA-MB-231 breast) was 26 µM and the TGI (MDA-MB-231 breast) was > 100 µM.
For `NS(=O)(=O)c1ccc(NC(=O)c2cc([N+](=O)[O-])cc([N+](=O)[O-])c2)cc1`, the TGI (MOLT-4 leukemia) was > 100 µM, the TGI (HCT-116 colon) was > 100 µM and the TGI (DU-145 prostate) was > 100 µM. The TGI (MCF7 breast) was 53.9 µM, the TGI (U251 CNS) was > 100 µM and the TGI (NCI-H23 lung) was > 100 µM. For the same molecule, the TGI (NCI-H460 lung) was > 100 µM and the TGI (MDA-MB-231 breast) was > 100 µM.
In the case of `COc1c(Cl)ccc(Cl)c1C(=O)NNC(=O)c1c(Cl)c(Cl)c(Cl)c(Cl)c1-c1nc2ccc(C(=O)c3ccccc3)cc2[nH]1`, the TGI (MOLT-4 leukemia) is reported as > 100 µM, the TGI (HCT-116 colon) is reported as > 100 µM and the TGI (DU-145 prostate) is reported as > 100 µM. For the same molecule, the TGI (MCF7 breast) was > 100 µM, the TGI (U251 CNS) was > 100 µM and the TGI (NCI-H522 lung) was > 100 µM. The TGI (NCI-H23 lung) was > 100 µM, the TGI (OVCAR-5 ovarian) was > 100 µM and the TGI (MDA-MB-231 breast) was > 100 µM.
